This is an account of results in patent US12466840B2, “Small molecule inhibitors of KRAS proteins” (Merck Sharp & Dohme LLC, priority 2023, dated 2025).

Read-outs that look alike come from different tables or passages of the source. Some results are limits rather than exact numbers.

What is called IC50 is the point on the concentration scale where inhibition reaches its midpoint.

One assay deals with KRAS G12D (Homo sapiens (Human), UniProt P01116, G12D). The assay is described as follows: SOS-catalyzed nucleotide exchange assay (GNE), KRAS G12D. The format is biochemical. The settings on record: TR-FRET, 60 min preincubation. An excerpt: (§1) Procedure for SOS-Catalyzed Nucleotide Exchange Assay for KRAS-WT, G12C/D/V/A/R/S, G13D, Q61H, HRAS-WT, and NRAS-WT
(§2) Recombinant KRAS-G12C protein used in this assay has an additional triple mutation (C51S/C80L/C118S). Whereas KRAS-WT, G12D/V/A/S/R, G13D, Q61H, HRAS and NRAS are in context of their WT protein sequence background. Specifically, the SOS-catalyzed nucleotide exchange assay utilizes a preformed TR-FRET complex containing a specific biotinylated RAS protein (KRAS-WT, G12C/V/D/A/S/R, G13D, Q61H, HRAS-WT, NRAS-WT; described above) with Bodipy-GDP, and Terbium-streptavidin. Compounds are preincubated with this complex for 60 minutes. Subsequently, recombinant human SOS protein and unlabeled GTP are added to initiate the exchange reaction. Small molecule inhibitors stabilize the Bodipy-GDP complex whereas the untreated protein rapidly exchanges Bodipy-GDP for unlabeled GTP resulting in reduced TR-FRET signal.
(§3) To assemble the preformed TR-FRET complexes, each biotinylated RAS protein is diluted to 2 μM in an EDTA Buffer (20 mM HEPES pH 7.5, 50 mM sodium chloride, 10 mM EDTA, and 0.01% Tween) and incubated at room temperature for one hour. This mixture is then further diluted to 90 nM in an Assay Buffer (20 mM HEPES pH 7.5, 150 mM sodium chloride, 10 mM magnesium chloride, and 0.005% Tween) containing 15 nM of Terbium-Streptavidin (Invitrogen, catalog #PV3577) and 900 nM of Bodipy-GDP (Invitrogen, catalog #G22360) and incubated at room temperature for six hours. It should be noted that this preformed TR-FRET complex for each of the RAS protein were made ahead of time, aliquoted and stored at −80° C. until the day of the experiment.
(§4) Each test compound (10 mM stock in DMSO) is diluted in DMSO to make a final-10-point, 3-fold dilution and is acoustically dispensed into a 384-well assay plate (Corning, catalog #3820) using an Echo 550 (Labcyte). Each well of the assay plate receives 3 μL of a specific 3×RAS preformed TR-FRET complex and 3 μL of Assay Buffer and is incubated at room temperature for 60 minutes (preincubation time). Each well then receives 3 μL of 3× recombinant human SOS protein and GTP (Sigma, G8877) in Assay Buffer and is incubated at room temperature for 30 minutes (G13D), 60 minutes (KRAS WT/G12C/D, H/NRAS) or 90 minutes for G12A/R/S/V and Q61H. The final reaction in each well of 9 μL consists of 3 mM GTP, specific Ras and SOS proteins in the following concentrations: KRAS-G12C/SOS=3 nM/40 nM, KRAS-WT and G12D/SOS=1 nM/40 nM, KRAS-G12V/SOS=1.25 nM/160 nM, KRAS-G12A/S/SOS=1 nM/160 nM, KRAS-G12R/SOS=1 nM/320 nM, KRAS-Q61H/SOS=1 nM/320 nM, KRAS-G13D/SOS=1.25 nM/[…], HRAS-WT and NRAS-WT=1.25 nM/40 nM.
(§5) The time-resolved fluorescence resonance energy transfer (TR-FRET) signal is measured on an Envision (PerkinElmer) plate reader: Excitation filter=340 nm; emission1=495 nm; emission2=520 nm; dichroic mirror=D400/D505; delay time=[…]. The signal of each well is determined as the ratio of the emission at 520 nm to that at 495 nm. Percent effect of each well is determined after normalization to control wells containing DMSO (no effect) or a saturating concentration of inhibitor (max effect). The apparent effect as a function of compound concentration is fit to a four-parameter logistic equation.

Another assay has as its target NRAS (Homo sapiens (Human), UniProt P01111). Description: SOS-catalyzed nucleotide exchange assay (GNE), NRAS-WT. Conditions: TR-FRET, 60 min preincubation. The class given is biochemical.
Source text: as §1, §2, §3, §4, §5
In general terms: TR-FRET usually uses a lanthanide donor and a delayed reading to cut background.

The next assay concerns the target KRAS G12R (Homo sapiens (Human), UniProt P01116, G12R). The assay is described as follows: SOS-catalyzed nucleotide exchange assay (GNE), KRAS G12R. The format is biochemical. Conditions: TR-FRET, 60 min preincubation.
Source text: as §1, §2, §3, §4, §5

The test system of assay [1] is MKN-1 cells (amplified wild-type KRAS). Description: Cellular phospho-ERK assay, MKN-1 cells. The class given is cell-based. Conditions: 2 h, p-ERK vs. total ERK, read-out: MKN1 pERK IC50. On the procedure:
Procedure for Cellular Phospho-ERK Assay in KRAS Wild Type and Mutant (G12D, G12V) Cell Lines
MKN-1 cells (JCRB JCRB0252) containing amplified wild-type KRAS, were cultured in growth medium that contains RPMI 1640-GlutaMAX™-I (ThermoFisher Scientific 61870) containing 10% heat inactivated fetal bovine serum (ThermoFisher Scientific 10091148), 1 mM sodium pyruvate and 10 mM HEPES. AsPC-1 cells (ATCC® CRL-1682™), containing homozygous KRAS-G12D activating mutation, were cultured in T150 flask in growth medium (RPMI medium 1640-GlutaMAX™-I (ThermoFisher Scientific 61870) containing 10% fetal bovine serum (ThermoFisher Scientific 10091148)). SW620 cells (ATCC® CRL-227™) containing homozygous KRAS-G12V activating mutation, were cultured in growth medium that contains RPMI 1640-GlutaMAX™-I (ThermoFisher Scientific 61870) containing 10% heat inactivated fetal bovine serum (ThermoFisher Scientific 10091148).
Cells for the assay were harvested in growth medium after TrypLE (ThermoFisher scientific 12604021) digestion and were seeded in a 384-well collagen coated cell culture plate (Corning 356702) at a density of 10,000-15,000 cells/[…]/well, and incubated at 37° C., 5% CO2 overnight. The compound (with 10 mM stock concentration) dose-response titrations were prepared [30 μM final ERK detection assay concentration and 1:3 dilutions, 10-point dose response] and appropriate amounts (270 nL) of test compounds were dispensed in a 384-well intermediate plate using an Echo 550 liquid handler. 30 μL/well of RPMI medium 1640-GlutaMAX™-I was added to the intermediate plate and the contents of the intermediate plate (10 μL/well) were then transferred to the 384-well collagen coated cell culture plate, which was incubated at 37° C., 5% CO2 for 2 h. After removal of medium from the collagen coated cell culture plate, cells were lysed in lysis buffer from Alpha SureFire® Ultra™ Multiplex p-ERK and total ERK assay kit (PerkinElmer MPSU-PTERK) containing Halt™ Protease and Phosphatase inhibitor cocktail (ThermoFisher Scientific 78446) at room temperature with constant shaking at 300 rpm for 30 minutes. The cell lysates were then transferred to an OptiPlate-384 plate (PerkinElmer 6005620), and the phosphorylation of ERK (p-ERK) and total ERK levels were detected by Alpha SureFire® Ultra™ Multiplex p-EEK kit and total ERK assay kit (PerkinElmer MPSU-PTERK) following the manufacturer's protocol. Assay plates were read on a EnVision Multimode Plate Reader (PerkinElmer), and the ratio of p-ERK vs. total ERK in each well was used as the final readout. Dose response curves were analyzed using a 4-parameter logistic model to calculate IC50 values using Spotfire software.

KRAS G12R, sequence (P01116 other isoform, or with tags, fused parts or gaps G12R (already in the parent)): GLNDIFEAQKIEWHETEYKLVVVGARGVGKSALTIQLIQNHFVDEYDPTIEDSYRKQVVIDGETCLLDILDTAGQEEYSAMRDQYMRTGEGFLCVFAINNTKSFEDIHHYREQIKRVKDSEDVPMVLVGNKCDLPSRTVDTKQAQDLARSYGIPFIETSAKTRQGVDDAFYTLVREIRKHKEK
KRAS G12D, sequence (P01116 other isoform, or with tags, fused parts or gaps G12D (already in the parent)): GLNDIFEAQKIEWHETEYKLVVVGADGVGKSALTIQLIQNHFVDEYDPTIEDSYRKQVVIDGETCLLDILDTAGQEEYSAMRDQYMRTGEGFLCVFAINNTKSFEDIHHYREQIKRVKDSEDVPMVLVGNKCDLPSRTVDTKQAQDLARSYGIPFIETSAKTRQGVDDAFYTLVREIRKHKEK
NRAS, sequence (P01111 other isoform, or with tags, fused parts or gaps): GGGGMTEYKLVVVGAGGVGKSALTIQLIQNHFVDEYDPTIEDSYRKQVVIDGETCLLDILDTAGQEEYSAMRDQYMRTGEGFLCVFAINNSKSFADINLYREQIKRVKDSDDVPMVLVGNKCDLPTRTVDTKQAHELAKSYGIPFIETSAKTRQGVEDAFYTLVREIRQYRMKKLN

In the case of `F/C=C1/CN2CCC[C@@]2(COc2nc3c4c(nc(-c5c(C6CC6)c(Cl)cc6[nH]ncc56)c(F)c4n2)OC[C@@H]2COCCCN32)C1` [Ex-1, (8aS)-5-(6-chloro-5-cyclopropyl-1H-indazol-4-yl)-4-fluoro-2-(((S,Z)-2-(fluoromethylene)tetrahydro-1H-pyrrolizin-7a(5H)-yl)methoxy)-8a,9,12,13-tetrahydro-8H,11H-7,10-dioxa-1,3,6,13a-tetraazanaphtho[1,8-ab]heptalene], the 50% inhibitory concentration (IC50) was 0.67 nM at KRAS G12D, above 11100 nM at NRAS, below 0.69 nM against KRAS G12R and 9.1 nM in assay [1].

For the compound `CCc1c(F)ccc2cc3[nH]ncc3c(-c3nc4c5c(nc(OC[C@@]67CCCN6C[C@H](F)C7)nc5c3F)N3CCCOC[C@H]3CO4)c12` [Ex-2, (8aS)-5-(5-ethyl-6-fluoro-1H-benzo[f]indazol-4-yl)-4-fluoro-2-(((2R,7aS)-2-fluorotetrahydro-1H-pyrrolizin-7a(5H)-yl)methoxy)-8a,9,12,13-tetrahydro-8H,11H-7,10-dioxa-1,3,6,13a-tetraazanaphtho[1,8-ab]heptalene], the IC50 is 0.65 nM against KRAS G12D, 7020 nM on NRAS, below 0.69 nM on KRAS G12R and 7.9 nM in assay [1].

`Fc1c(-c2c(C3CC3)c(Cl)cc3[nH]ncc23)nc2c3c(nc(OC[C@@]45CCCN4C[C@H](F)C5)nc13)N1CCCOC[C@H]1CO2` [Ex-3, (8aS)-5-(6-chloro-5-cyclopropyl-1H-indazol-4-yl)-4-fluoro-2-(((2R,7aS)-2-fluorotetrahydro-1H-pyrrolizin-7a(5H)-yl)methoxy)-8a,9,12,13-tetrahydro-8H,11H-7,10-dioxa-1,3,6,13a-tetraazanaphtho[1,8-ab]heptalene]: the IC50 on KRAS G12D stood at 1.3 nM; in assay [1] (Homo sapiens), 9.7 nM.

Regarding `CCc1c(F)ccc2cc3[nH]ncc3c(-c3nc4c5c(nc(OC[C@@]67CCCN6C/C(=C\F)C7)nc5c3F)N3CCCOC[C@H]3CO4)c12` [Ex-4, (8aS)-5-(5-ethyl-6-fluoro-1H-benzo[f]indazol-4-yl)-4-fluoro-2-(((S,Z)-2-(fluoromethylene)tetrahydro-1H-pyrrolizin-7a(5H)-yl)methoxy)-8a,9,12,13-tetrahydro-8H,11H-7,10-dioxa-1,3,6,13a-tetraazanaphtho[1,8-ab]heptalene], the IC50 at KRAS G12D is below 0.69 nM; against NRAS, 2820 nM; at KRAS G12R, below 0.69 nM; in assay [1] (Homo sapiens), 6.6 nM.

As for `F/C=C1\CN2CCC[C@@]2(COc2nc3c4c(nc(-c5c(C6(F)CC6)c(Cl)cc6[nH]ncc56)c(F)c4n2)OC[C@@H]2COCCCN32)C1` [Ex-5, (8aS)-5-(6-chloro-5-(1-fluorocyclopropyl)-1H-indazol-4-yl)-4-fluoro-2-(((S,Z)-2-(fluoromethylene)tetrahydro-1H-pyrrolizin-7a(5H)-yl)methoxy)-8a,9,12,13-tetrahydro-8H,11H-7,10-dioxa-1,3,6,13a-tetraazanaphtho[1,8-ab]heptalene], the IC50 at KRAS G12D was below 0.69 nM; at NRAS, above 11100 nM; against KRAS G12R, 1.3 nM; in assay [1] (Homo sapiens), 4.3 nM.

In the case of `CCc1c(F)ccc2cc3[nH]nc(C)c3c(-c3nc4c5c(nc(OC[C@@]67CCCN6C[C@H](F)C7)nc5c3F)N3CCCOC[C@H]3CO4)c12` [Ex-6, (8aS)-5-(5-ethyl-6-fluoro-3-methyl-1H-benzo[f]indazol-4-yl)-4-fluoro-2-(((2R,7aS)-2-fluorotetrahydro-1H-pyrrolizin-7a(5H)-yl)methoxy)-8a,9,12,13-tetrahydro-8H,11H-7,10-dioxa-1,3,6,13a-tetraazanaphtho[1,8-ab]heptalene], the concentration for half-maximal inhibition (IC50) on KRAS G12D was determined as 1.3 nM; against NRAS, 10000 nM; against KRAS G12R, 1.2 nM; in assay [1] (Homo sapiens), 14 nM.

As to `CCc1c(F)ccc2cc3[nH]nc(C)c3c(-c3nc4c5c(nc(OC[C@@]67CCCN6C/C(=C\F)C7)nc5c3F)N3CCCOC[C@H]3CO4)c12` [Ex-7, (8aS)-5-(5-ethyl-6-fluoro-3-methyl-1H-benzo[f]indazol-4-yl)-4-fluoro-2-(((S,Z)-2-(fluoromethylene)tetrahydro-1H-pyrrolizin-7a(5H)-yl)methoxy)-8a,9,12,13-tetrahydro-8H,11H-7,10-dioxa-1,3,6,13a-tetraazanaphtho[1,8-ab]heptalene], the 50% inhibitory concentration (IC50) is 1.4 nM against KRAS G12D, 8980 nM at NRAS, 1.3 nM against KRAS G12R and 12 nM in assay [1].
